Data as given in ChEMBL document CHEMBL1157703, “Synthesis, pharmacological studies and molecular modeling of some tetracyclic 1,3-diazepinium chlorides” (Bioorg Med Chem, 2010).
Calls of active or inactive are those of the source. The calls are words filed in the database; no cut-off is given here.

Columns and labels:
[1] = organism: Mus musculus; test: Effect on behavioral activity in Albino mouse assessed as inhibition of diazepam-induced loss of screen grip at 0.2 ml/10 g by hippocratic screen; format: functional, organism-based
[2] = organism: Mus musculus; test: Effect on behavioral activity in Albino mouse assessed as inhibition of diazepam-induced decrease in respiratory rate at 0.2 ml/10 g by hippocratic screen; format: functional, organism-based
[3] = organism: Mus musculus; test: Effect on behavioral activity in Albino mouse assessed as inhibition of diazepam-induced loss of analgesia at 0.2 ml/10 g by hippocratic screen; format: functional, organism-based
[4] = organism: Mus musculus; test: Effect on behavioral activity in Albino mouse assessed as inhibition of diazepam-induced anesthesia at 0.2 ml/10 g by hippocratic screen; format: functional, organism-based
[5] = organism: Mus musculus; test: Effect on behavioral activity in Albino mouse assessed as inhibition of diazepam-induced paralysis at 0.2 ml/10 g by hippocratic screen; format: functional, organism-based
[6] = organism: Mus musculus; test: Effect on behavioral activity in Albino mouse assessed as inhibition of diazepam-induced tremors at 0.2 ml/10 g by hippocratic screen; format: functional, organism-based
[7] = organism: Mus musculus; test: Effect on behavioral activity in Albino mouse assessed as inhibition of diazepam-induced startle reaction at 0.2 ml/10 g by hippocratic screen; format: functional, organism-based
[8] = biological target: T1, GABA-A receptor; alpha-1/beta-2/gamma-2 (Homo sapiens, UniProt P14867+P18507+P47870); test: Displacement of [3H]flunitrezepam from GABA-A alpha-1-beta-2-gamma-2 receptor by liquid scintillation counting; format: protein-complex assay
T1 sequence (P14867 whole entry): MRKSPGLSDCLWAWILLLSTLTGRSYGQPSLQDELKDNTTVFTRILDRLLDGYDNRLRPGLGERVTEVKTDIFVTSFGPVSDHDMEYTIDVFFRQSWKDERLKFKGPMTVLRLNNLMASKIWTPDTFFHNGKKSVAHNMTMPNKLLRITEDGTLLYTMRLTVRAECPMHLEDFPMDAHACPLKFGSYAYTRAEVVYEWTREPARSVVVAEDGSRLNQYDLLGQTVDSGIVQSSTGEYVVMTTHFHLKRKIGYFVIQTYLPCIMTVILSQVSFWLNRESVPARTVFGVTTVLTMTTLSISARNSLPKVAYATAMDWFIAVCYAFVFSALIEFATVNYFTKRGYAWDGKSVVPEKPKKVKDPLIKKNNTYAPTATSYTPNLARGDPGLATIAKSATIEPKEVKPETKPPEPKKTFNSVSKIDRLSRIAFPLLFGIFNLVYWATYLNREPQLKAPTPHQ
T1 sequence (P47870 whole entry): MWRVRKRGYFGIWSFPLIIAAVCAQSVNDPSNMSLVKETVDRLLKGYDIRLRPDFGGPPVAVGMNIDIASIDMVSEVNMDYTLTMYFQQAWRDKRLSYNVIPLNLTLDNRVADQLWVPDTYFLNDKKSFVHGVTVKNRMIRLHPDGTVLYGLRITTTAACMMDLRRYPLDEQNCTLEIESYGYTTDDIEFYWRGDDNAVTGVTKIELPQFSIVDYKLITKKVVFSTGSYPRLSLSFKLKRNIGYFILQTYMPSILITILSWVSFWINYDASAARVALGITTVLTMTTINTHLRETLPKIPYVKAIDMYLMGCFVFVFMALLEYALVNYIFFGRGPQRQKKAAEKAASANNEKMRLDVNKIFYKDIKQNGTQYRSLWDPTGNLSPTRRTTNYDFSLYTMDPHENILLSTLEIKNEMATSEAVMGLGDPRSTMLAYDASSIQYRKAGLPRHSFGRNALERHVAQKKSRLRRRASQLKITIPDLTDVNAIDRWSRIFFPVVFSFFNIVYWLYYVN
T1 sequence (P18507 whole entry): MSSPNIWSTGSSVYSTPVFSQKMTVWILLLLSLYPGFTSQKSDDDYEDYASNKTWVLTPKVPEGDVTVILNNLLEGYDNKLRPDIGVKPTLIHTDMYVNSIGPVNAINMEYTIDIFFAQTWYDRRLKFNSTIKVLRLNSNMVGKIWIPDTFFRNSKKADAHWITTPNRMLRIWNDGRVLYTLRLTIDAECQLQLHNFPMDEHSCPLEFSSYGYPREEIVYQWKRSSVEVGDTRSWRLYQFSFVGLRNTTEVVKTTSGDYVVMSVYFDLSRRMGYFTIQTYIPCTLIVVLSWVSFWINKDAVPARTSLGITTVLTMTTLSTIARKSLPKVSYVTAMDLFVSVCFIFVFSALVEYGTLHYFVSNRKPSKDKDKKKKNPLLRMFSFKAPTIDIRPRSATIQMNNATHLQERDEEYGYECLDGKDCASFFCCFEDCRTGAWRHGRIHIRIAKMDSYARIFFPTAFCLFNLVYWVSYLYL

[9] = biological target: T2, GABA A receptor alpha-2/beta-2/gamma-2 (Homo sapiens, UniProt P18507+P47869+P47870); test: Displacement of [3H]flunitrezepam from GABA-A alpha-2-beta-2-gamma-2 receptor by liquid scintillation counting; format: protein-complex assay
T2 sequence (P47870 whole entry): T1 sequence (P47870 whole entry)
T2 sequence (P18507 whole entry): T1 sequence (P18507 whole entry)
T2 sequence (P47869 whole entry): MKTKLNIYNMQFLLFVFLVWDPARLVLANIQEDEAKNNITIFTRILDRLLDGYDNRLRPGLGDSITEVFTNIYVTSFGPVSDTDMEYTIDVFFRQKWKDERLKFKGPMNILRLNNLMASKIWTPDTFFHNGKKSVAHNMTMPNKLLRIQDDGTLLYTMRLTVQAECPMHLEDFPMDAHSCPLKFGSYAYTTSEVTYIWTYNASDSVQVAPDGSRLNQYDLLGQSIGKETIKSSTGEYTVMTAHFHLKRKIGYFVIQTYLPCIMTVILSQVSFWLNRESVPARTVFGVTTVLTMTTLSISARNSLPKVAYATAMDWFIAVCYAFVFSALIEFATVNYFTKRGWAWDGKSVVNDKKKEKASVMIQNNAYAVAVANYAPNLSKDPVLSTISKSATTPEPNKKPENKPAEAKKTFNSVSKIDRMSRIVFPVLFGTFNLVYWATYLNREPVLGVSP

[10] = biological target: T3, GABA A receptor alpha-3/beta-2/gamma-2 (Homo sapiens, UniProt P18507+P34903+P47870); test: Displacement of [3H]flunitrezepam from GABAA alpha-3-beta-2-gamma-2 receptor by liquid scintillation counting; format: protein-complex assay
T3 sequence (P47870 whole entry): T1 sequence (P47870 whole entry)
T3 sequence (P18507 whole entry): T1 sequence (P18507 whole entry)
T3 sequence (P34903 whole entry): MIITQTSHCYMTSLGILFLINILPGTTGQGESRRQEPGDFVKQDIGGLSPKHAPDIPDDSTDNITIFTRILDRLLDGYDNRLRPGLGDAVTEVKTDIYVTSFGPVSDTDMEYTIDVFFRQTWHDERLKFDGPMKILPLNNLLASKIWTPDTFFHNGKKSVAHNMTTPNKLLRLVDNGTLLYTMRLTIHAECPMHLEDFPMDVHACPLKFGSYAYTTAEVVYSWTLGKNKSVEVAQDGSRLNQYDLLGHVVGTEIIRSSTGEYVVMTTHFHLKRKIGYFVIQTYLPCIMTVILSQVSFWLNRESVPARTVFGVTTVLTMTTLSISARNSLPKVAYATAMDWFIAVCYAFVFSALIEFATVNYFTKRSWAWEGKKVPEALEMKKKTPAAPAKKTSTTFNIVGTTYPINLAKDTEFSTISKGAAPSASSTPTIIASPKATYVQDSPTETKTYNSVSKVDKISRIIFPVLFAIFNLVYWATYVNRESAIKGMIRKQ

[11] = biological target: T4, Gamma-aminobutyric acid receptor subunit alpha-5 (Homo sapiens, UniProt P18507+P31644+P47870); test: Displacement of [3H]flunitrezepam from GABAA alpha-5-beta-2-gamma-2 receptor by liquid scintillation counting
T4 sequence (P31644 whole entry): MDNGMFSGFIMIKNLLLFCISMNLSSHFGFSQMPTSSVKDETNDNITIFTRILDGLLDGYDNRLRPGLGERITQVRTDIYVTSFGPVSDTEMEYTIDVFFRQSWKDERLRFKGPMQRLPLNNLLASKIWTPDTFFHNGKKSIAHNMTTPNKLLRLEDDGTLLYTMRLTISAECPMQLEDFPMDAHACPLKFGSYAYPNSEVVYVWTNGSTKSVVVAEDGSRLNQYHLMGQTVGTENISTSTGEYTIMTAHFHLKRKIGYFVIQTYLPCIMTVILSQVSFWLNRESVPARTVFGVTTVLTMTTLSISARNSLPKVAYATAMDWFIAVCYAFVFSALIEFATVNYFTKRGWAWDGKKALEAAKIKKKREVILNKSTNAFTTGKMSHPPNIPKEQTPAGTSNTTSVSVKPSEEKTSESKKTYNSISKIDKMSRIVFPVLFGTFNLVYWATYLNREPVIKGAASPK

[12] = tested on: Mus musculus; test: CNS toxicity in Albino mouse assessed as anesthetic response at 0.2 ml/10 g by hippocratic screen; format: organism-based; conditions: in vivo
[13] = organism: Mus musculus; test: CNS toxicity in Albino mouse assessed as decrease in motor activity at 0.2 ml/10 g by hippocratic screen; format: organism-based; conditions: in vivo
[14] = organism: Mus musculus; test: CNS toxicity in Albino mouse assessed as ataxia at 0.2 ml/10 g by hippocratic screen; format: organism-based; conditions: in vivo
[15] = organism: Mus musculus; test: CNS toxicity in Albino mouse assessed as loss of righting reflex at 0.2 ml/10 g by hippocratic screen; format: organism-based; conditions: in vivo
[16] = organism: Mus musculus; test: CNS toxicity in Albino mouse assessed as loss of screen grip at 0.2 ml/10 g by hippocratic screen; format: organism-based; conditions: in vivo
[17] = organism: Mus musculus; test: CNS toxicity in Albino mouse assessed as pinnal reflex at 0.2 ml/10 g by hippocratic screen; format: organism-based; conditions: in vivo
[18] = organism: Mus musculus; test: CNS toxicity in Albino mouse assessed as change in respiratory rate at 0.2 ml/10 g by hippocratic screen; format: organism-based; conditions: in vivo
[19] = organism: Mus musculus; test: CNS toxicity in Albino mouse assessed as loss of analgesic activity at 0.2 ml/10 g by hippocratic screen; format: organism-based; conditions: in vivo
[20] = organism: Mus musculus; test: CNS toxicity in Albino mouse assessed as paralysis at 0.2 ml/10 g by hippocratic screen; format: organism-based; conditions: in vivo
[21] = organism: Mus musculus; test: CNS toxicity in Albino mouse assessed as tremors at 0.2 ml/10 g by hippocratic screen; format: organism-based; conditions: in vivo
[22] = organism: Mus musculus; test: CNS toxicity in Albino mouse assessed as startle reaction at 0.2 ml/10 g by hippocratic screen; format: organism-based; conditions: in vivo
[23] = organism: Mus musculus; test: Effect on behavioral activity in Albino mouse assessed as inhibition of diazepam-induced decrease in motor activity at 0.2 ml/10 g for 10 to 15 mins by hippocratic screen; format: functional, organism-based
[24] = organism: Mus musculus; test: Effect on behavioral activity in Albino mouse assessed as inhibition of diazepam-induced ataxia at 0.2 ml/10 g after 5 mins by hippocratic screen; format: functional, organism-based
[25] = organism: Mus musculus; test: Effect on behavioral activity in Albino mouse assessed as inhibition of diazepam-induced loss of righting reflex at 0.2 ml/10 g after 2 hrs by hippocratic screen; format: functional, organism-based
[26] = organism: Mus musculus; test: Effect on behavioral activity in Albino mouse assessed as inhibition of diazepam-induced pinnal reflex at 0.2 ml/10 g by hippocratic screen; format: functional, organism-based
[27] = biological target: Sodium-dependent noradrenaline transporter (Homo sapiens) (UniProt P23975); test: Inhibition of NET PDSP analysis
[28] = organism: Mus musculus; test: Effect on behavioral activity in Albino mouse assessed as inhibition of diazepam-induced decrease in motor activity at 0.2 ml/10 g for 2 hrs by hippocratic screen; format: functional, organism-based
[29] = organism: Mus musculus; test: Effect on behavioral activity in Albino mouse assessed as inhibition of diazepam-induced ataxia at 0.2 ml/10 g for 15 mins by hippocratic screen; format: functional, organism-based

Sequence of Sodium-dependent noradrenaline transporter (Homo sapiens) (P23975 whole entry): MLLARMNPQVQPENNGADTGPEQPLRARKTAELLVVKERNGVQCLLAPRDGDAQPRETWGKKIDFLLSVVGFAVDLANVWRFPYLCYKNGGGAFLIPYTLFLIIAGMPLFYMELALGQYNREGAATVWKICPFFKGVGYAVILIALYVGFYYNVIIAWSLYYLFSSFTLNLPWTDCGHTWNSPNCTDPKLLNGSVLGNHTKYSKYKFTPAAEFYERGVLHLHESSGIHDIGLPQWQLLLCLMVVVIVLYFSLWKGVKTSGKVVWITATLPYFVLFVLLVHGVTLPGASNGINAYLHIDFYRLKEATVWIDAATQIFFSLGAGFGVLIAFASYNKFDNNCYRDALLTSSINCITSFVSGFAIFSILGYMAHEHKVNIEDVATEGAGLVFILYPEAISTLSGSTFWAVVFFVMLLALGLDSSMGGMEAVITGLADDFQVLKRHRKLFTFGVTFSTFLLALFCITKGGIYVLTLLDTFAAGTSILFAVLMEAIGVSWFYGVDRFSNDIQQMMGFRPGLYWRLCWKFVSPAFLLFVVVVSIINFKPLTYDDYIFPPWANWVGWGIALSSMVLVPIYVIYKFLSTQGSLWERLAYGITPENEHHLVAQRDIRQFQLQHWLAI

Row | Compound | Activity [1] | Activity [2] | Activity [3] | Activity [4] | Activity [5] | Activity [6] | Activity [7] | Activity [12] | Activity [13] | Activity [14] | Activity [15] | Activity [16] | Activity [17] | Activity [18] | Activity [19] | Activity [20] | Activity [21] | Activity [22] | Activity [25] | Activity [26] | also measured
1 | COc1ccc2c3c(oc2c1)C(=O)Nc1cccc[n+]1C3.[Cl-] | inactive | inactive | inactive | inactive | inactive | inactive | inactive | Non-toxic | Non-toxic | Non-toxic | Non-toxic | Non-toxic | Non-toxic | Non-toxic | Non-toxic | Non-toxic | Non-toxic | Non-toxic | inactive | Active | Ki [8]: 746 nM; Ki [9]: 8080 nM; Ki [10]: 1540 nM; Ki [11]: 2360 nM; Activity [23]: Active; Activity [24]: inactive
2 | NC[C@H](O)c1ccc(O)c(O)c1 |  |  |  |  |  |  |  |  |  |  |  |  |  |  |  |  |  |  |  |  | Ki [27]: > 10000 nM
3 | COc1ccc2c3c(oc2c1)C(=O)Nc1cccc(C)[n+]1C3.[Cl-] | inactive | inactive | inactive | inactive | inactive | inactive | inactive | Non-toxic | Non-toxic | Non-toxic | Non-toxic | Non-toxic | Non-toxic | Non-toxic | Non-toxic | Non-toxic | Non-toxic | Non-toxic | inactive | inactive | Activity [28]: Active; Activity [29]: Active
